# In patent US20260191807A1, “COMPOSITIONS AND METHODS FOR TREATMENT OF PRADER-WILLI SYNDROME” (ERX Pharmaceuticals Inc., priority 2022, published 2026):
# Legend:
# Type in all cases: in vivo
# C57BL/6 DIO mice [1] = assay: Daily food intake of C57BL/6 DIO mice; settings: for Food intake (food weights in g/day): Belaronib 0.3 mg/kg SC, Celastrol 0.2 mg/kg IP daily, mean
# Experimental: (§1) C57BL/6 mice were treated with test compound (Celastrol) or controls as shown in the table below from Day 1 to Day 15. […] One mouse was excluded from the study because it appeared resistant to nestlet shredding prior to treatment.
# (§2) Male C57BL/6 DIO mice were obtained from Jackson Labs (Bar Harbor, ME). The mice arrived at ages 17 weeks and mice were housed 3 per cage on arrival. Prior to dosing in the study, the mice were singly housed.
# (§3) All treatment volumes were 10 mL/kg. Utilizing the art-recognized nestlet shredding mouse model, […]. Celastrol and the vehicle control were administered intraperitoneally using a 30G needle. Beloranib was administered subcutaneously using a 30G needle. All treatments were administered daily in the afternoon at 17:00 h, 1 hour before dark cycle from Day 1 to end of dosing.
# (§4) Celastrol was dissolved in a pharmaceutically-acceptable excipient, e.g., 50% Solutol/50% DMAC, and this stock solution aliquoted and stored at −80° C. until treatment day. On the day of treatment, an aliquot of the stock solution was thawed and diluted […] with saline to obtain the desired dosing solution strength in 5% Solutol/5% dimethylacetamide/90% saline. The vehicle control was 5% Solutol/5% dimethylacetamide/90% saline. Beloranib was dissolved in 100% DMSO, and this stock solution was aliquoted and stored at −80° C. until treatment day. On the day of treatment, an aliquot of the stock solution was thawed and diluted 1:10 with deionized (DI) water to obtain the desired dosing solution strength in 10% DMSO.
# Daily food intake was calculated based on remaining food weight compared to food weight on the previous day using an Ohaus model CS 200 balance.
# C57BL/6 DIO mice [2] = assay: Nestlet shredding test in C57BL/6 DIO mice; settings: Belaronib 0.3 mg/kg SC, Celastrol 0.2 mg/kg IP daily, mean
# Experimental: as §1, §2, §3, §4
# (§5) The nestlet shredding test is an art-recognized animal model for human repetitive, anxiety, and/or compulsive behaviors. In the nestlet shredding test, a nestlet comprised of pulped fiber, e.g., cotton fiber, is preweighed and placed on top of cage bedding and the amount of the nestlet remaining intact after a test session of pre-determined time is evaluated.
# Nestlet shredding was determined on day 1, day 6, day 11 and day 15 by placing a fresh nestlet prior to the dark cycle and measuring the weight of the remaining nestlet at 12 and 24 hours on an Ohaus model CS 200 balance. Percent shredding was calculated based on the initial nestlet weight.
# C57BL/6-Magel2 mice = assay: Nestlet shredding test in C57BL/6 Magel2 mice; settings: 0.2 mg/kg IP QD, mean
# Experimental: The nestlet shredding behavioral effects of celastrol was evaluated in Magel2 knockout mice. Magel2 knockout has been used as a model of Prader-Willi syndrome to assess potential pharmacological treatments effect on behavior (Meziane 2015). Without wishing to be bound by theory, the Magel2 gene is a major causative gene of phenotypes in both Prader-Willi syndrome and autism (Schraff 2013). Further, nestlet shredding has been used to assess anxiety and compulsive behaviors in mouse models (Angoa-Perez 2013 and Dorniger 2020) and has been used to characterize clinically effective treatments for Prader-Willi syndrome (Fagen 2018 and McCandless 2017).
# In the study disclosed herein, celastrol at was administered intraperitoneally using a 30G needle at a dose of 0.2 mg/kg to five female Magel2 homozygous mice (−/−) and four male mice heterozygous for Magel2 (−/+). In addition, vehicle was administered to four male mice heterozygous for Magel2 (−/+) for 21 days.
# C57BL/6-Magel2 mice were bred for purpose from cryo recovery by Jackson Labs (Bar Harbor, ME) and arrived at the testing facility at age 8 weeks.
# All treatment volumes were 10 mL/kg. Utilizing the art-recognized nestlet shredding mouse model, the dose was administered by gavage (as capsule dosing is challenging in mice). Celastrol and the vehicle control were administered intraperitoneally using a 30G needle. All treatments were administered daily in the afternoon at 17:00 h, 1 hour before dark cycle from Day 1 to end of dosing.
# Celastrol was dissolved in 50% Solutol/50% DMAC. The resulting stock solution aliquoted and stored at −80° C. until treatment day. On the day of treatment an aliquot of the stock solution was thawed and diluted 1:20 with saline to obtain the desired dosing solution strength in 5%
# as §5
# Nestlet shredding was determined on day 1, day 11, and day 21 by placing a fresh nestlet prior to the dark cycle and measuring the weight of the remaining nestlet at 12 and 24 hours on an Ohaus model CS 200 balance. Percent shredding was calculated based on the initial nestlet weight.
smiles,measurement,setting,value
CC1=C(O)C(=O)C=C2C1=CC=C1[C@@]2(C)CC[C@@]2(C)[C@@H]3C[C@](C)(C(=O)O)CC[C@]3(C)CC[C@]12C [Celastrol],"cumulative food intake, average total for the study","C57BL/6 DIO mice [1]; 15-day study, Beloranib 0.3 mg/kg SC, celastrol 0.2 mg/kg IP daily, vehicle 32.6 g",17.4 g/mouse
same,effect on food intake (in words),C57BL/6 DIO mice [1]; Celastrol compared with positive control Beloranib,more potent and sustained effect on food intake
same,Food intake (food weights in g/day),C57BL/6 DIO mice [1]; Day 1,2.7 g/day
same,Food intake (food weights in g/day),C57BL/6 DIO mice [1]; Day 2,1.2 g/day
same,Food intake (food weights in g/day),C57BL/6 DIO mice [1]; Day 3,1.1 g/day
same,Food intake (food weights in g/day),C57BL/6 DIO mice [1]; Day 4,0.9 g/day
same,Food intake (food weights in g/day),C57BL/6 DIO mice [1]; Day 5,0.7 g/day
same,Food intake (food weights in g/day),C57BL/6 DIO mice [1]; Day 6,0.9 g/day
same,Food intake (food weights in g/day),C57BL/6 DIO mice [1]; Day 7,1.1 g/day
same,Food intake (food weights in g/day),C57BL/6 DIO mice [1]; Day 8,1.2 g/day
same,Food intake (food weights in g/day),C57BL/6 DIO mice [1]; Day 9,0.7 g/day
same,Food intake (food weights in g/day),C57BL/6 DIO mice [1]; Day 10,0.9 g/day
same,Food intake (food weights in g/day),C57BL/6 DIO mice [1]; Day 11,1.1 g/day
same,Food intake (food weights in g/day),C57BL/6 DIO mice [1]; Day 12,1.3 g/day
same,Food intake (food weights in g/day),C57BL/6 DIO mice [1]; Day 13,1.4 g/day
same,Food intake (food weights in g/day),C57BL/6 DIO mice [1]; Day 14,1.2 g/day
same,Food intake (food weights in g/day),C57BL/6 DIO mice [1]; Day 15,1.0 g/day
same,"food intake, average","C57BL/6 DIO mice [1]; from day 2 throughout the 15-day study, 0.2 mg/kg IP daily, vehicle around 2.2",1.0 g/day/mouse
same,Nestlet Shredding (percent of nestlet shredded),"C57BL/6 DIO mice [2]; Day 1, 12 hour",94.4%
same,Nestlet Shredding (percent of nestlet shredded),"C57BL/6 DIO mice [2]; Day 6, 12 hour",70.1%
same,Nestlet Shredding (percent of nestlet shredded),"C57BL/6 DIO mice [2]; Day 6, 24 hour",93.6%
same,Nestlet Shredding (percent of nestlet shredded),"C57BL/6 DIO mice [2]; Day 11, 12 hour",43.7%
same,Nestlet Shredding (percent of nestlet shredded),"C57BL/6 DIO mice [2]; Day 11, 24 hour",71.0%
same,Nestlet Shredding (percent of nestlet shredded),"C57BL/6 DIO mice [2]; Day 15, 12 hour",50.9%
same,Nestlet Shredding (percent of nestlet shredded),"C57BL/6 DIO mice [2]; Day 15, 24 hour",63.3%
same,Nestlet Shredding (percent of nestlet shredded),"C57BL/6-Magel2 mice; Day 1, 12 hour, Magel2 (−/+) heterozygous male mice",100.0%
same,Nestlet Shredding (percent of nestlet shredded),"C57BL/6-Magel2 mice; Day 1, 12 hour, Magel2 (−/−) homozygous female mice",100.0%
same,Nestlet Shredding (percent of nestlet shredded),"C57BL/6-Magel2 mice; Day 11, 12 hour, Magel2 (−/+) heterozygous male mice",100.0%
same,Nestlet Shredding (percent of nestlet shredded),"C57BL/6-Magel2 mice; Day 11, 12 hour, Magel2 (−/−) homozygous female mice",54.7%
same,Nestlet Shredding (percent of nestlet shredded),"C57BL/6-Magel2 mice; Day 11, 24 hour, Magel2 (−/+) heterozygous male mice",100.0%
same,Nestlet Shredding (percent of nestlet shredded),"C57BL/6-Magel2 mice; Day 11, 24 hour, Magel2 (−/−) homozygous female mice",93.5%
same,Nestlet Shredding (percent of nestlet shredded),"C57BL/6-Magel2 mice; Day 21, 12 hour, Magel2 (−/+) heterozygous male mice",38.3%
same,Nestlet Shredding (percent of nestlet shredded),"C57BL/6-Magel2 mice; Day 21, 12 hour, Magel2 (−/−) homozygous female mice",54.7%
same,Nestlet Shredding (percent of nestlet shredded),"C57BL/6-Magel2 mice; Day 21, 24 hour, Magel2 (−/+) heterozygous male mice",44.6%
same,Nestlet Shredding (percent of nestlet shredded),"C57BL/6-Magel2 mice; Day 21, 24 hour, Magel2 (−/−) homozygous female mice",62.3%
